Drawing on PubChem BioAssay (NCI), this text covers TGI and GI50 for 27 compounds.

Test in all cases: growth of human tumour cells (NCI), 48 h
Test [1] has as its system UO-31 renal.
The test system of test [2] is NCI-H522 lung.
Test [3] deals with COLO 205 colon.
Test [4] has as its system OVCAR-8 ovarian.
The subject of test [5] is NCI-H23 lung.
In test [6] the test system is SW-620 colon.
Test [7] concerns UACC-257 melanoma.
Test [8] relates to LOX IMVI melanoma.
The subject of test [9] is SF-295 CNS.
The subject of test [10] is SK-MEL-5 melanoma.

Where “and” joins values, the source holds several entries; their conditions need not be identical. Equal values may be shown once.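 A five-concentration, 48-hour dose response in 96-well plates underlies each endpoint, interpolated linearly between surrounding concentrations. At the GI50, growth is halved. TGI denotes the concentration required for complete inhibition of growth.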

Consider `CCN(CC)CCn1c2c3ccccc3ccc2c2oc(=O)c3ccccc3c21`, for which the TGI in test [1], in test [2], in [3], in test [4], in test [5] and in [6] was more than 100 µM each time. The TGI in test [7], in test [8] and in test [9] was more than 100 µM in each case.
In the case of `COc1cc(-c2cc(=O)c3cc4c(cc3[nH]2)OCO4)cc(OC)c1OC`, the TGI in test [1], in test [2], in test [3], in test [4], in test [5] and in test [6] was more than 100 µM each time. In addition, the TGI in [10] is more than 100 µM; in test [8], more than 100 µM; in test [9], 97.9 µM. Also, in test [9], the GI50 is 32 µM.
As to `O=[N+]([O-])c1c(/C=N/Nc2ccccc2)oc(-c2ccc3c(c2)OCO3)c1-c1ccc2c(c1)OCO2`, the TGI in test [2], in test [3], in test [4], in test [5], in test [6] and in test [7] was more than 100 µM in each case. For the same compound, the TGI in [8] is 18.1 µM; in [9], more than 100 µM.
For `CCN(CC)CCNc1c(OC)cc(C)c2sc3ccccc3c(=O)c12`, the TGI was 20.3 µM in [1]; 20 µM in test [2]; 5.02 µM in test [3]; 26.1 µM in test [4]; 29 µM in test [5]; 17.9 µM in test [6]. Further, the TGI in test [7] amounted to 3.6 µM; in test [10] it was 3.4 µM; in test [9], 14.4 µM.
`CCN(CC)CCCCC1CCN(CC(=O)N2CC(C)C(=O)Nc3ccccc32)CC1` (stereo not drawn): the TGI in test [1], in test [3], in test [5], in test [6], in [7] and in test [10] was more than 100 µM in each case. Also, the TGI in [8] and in test [9] was more than 100 µM each time.
With `Cc1cc2c(CC(=O)O)[nH]nc2c(C(=O)O)c1C`, the TGI in test [1], in test [3], in test [4], in [5], in [6] and in test [7] was more than 100 µM each time. Also, the TGI in [8] and in test [9] was more than 100 µM each time.
Consider `C=CCNC(=S)N1CC(C)C(=O)Nc2ccccc21` (stereo not drawn), for which the TGI in [1], in test [2], in test [3], in [4], in test [5] and in [6] was more than 100 µM throughout. Moreover, the TGI in test [10], in [8] and in test [9] was more than 100 µM each time.
For the compound `CN(C)c1ccc(/C=C2\Oc3cc(O)ccc3C2=O)cc1`, the TGI in test [1], in [2], in [3], in test [4], in [5] and in test [6] was more than 100 µM throughout. For the same compound, the TGI in test [7], in test [10] and in test [9] was more than 100 µM each time.
Consider `Cc1nc2ccc(C(F)(F)F)cc2nc1Nc1ccc(Cl)c(Cl)c1`, for which the TGI in [1] worked out at 24.6 µM; in test [3], 11.9 µM; in test [4], 25.4 µM; in test [5], 26.4 µM; in test [6], 28.3 µM; in [7] it was 25.4 µM. Further, the TGI in test [8] was 13.5 µM; in test [9], 11.8 µM.
For the compound `C=CCn1c(C)nc2cc(Nc3nc(Nc4ccc5nc(C)n(CC=C)c5c4)c4ccccc4n3)ccc21`, the GI50 in test [1] is 1.4 µM; in [2] it was 1.43 µM; in [4], 0.229 µM; in test [5] it was 1.88 µM; in test [10], 1.36 µM; in test [8], 0.208 µM. In test [9], the GI50 is 1.19 µM. Moreover, the TGI in test [1] was found to be 2.74 µM; in [2], 3.27 µM; in [4], 0.535 µM; in test [5], 4.57 µM; in test [10], 2.64 µM; in [8], 0.466 µM. Also, the TGI in test [9] was 2.56 µM.
For `Nc1c(C(=O)c2ccccc2)sc2nc(-c3cccs3)ccc12`, the GI50 in test [1] is 1.13 µM; in [2] it was 0.0178 µM; in [3] it was 0.426 µM; in [4], 0.453 µM; in [5], 0.331 µM; in test [6] it was 0.0734 µM. The GI50 is 0.292 µM in test [10], 0.378 µM in [8] and 0.171 µM in test [9]. Moreover, the TGI is 15.2 µM in [1]; 0.0567 µM in test [2]; 4.65 µM in test [3]; more than 100 µM in test [4]; 10.1 µM in test [5]; 11.1 µM in test [6]. The results for the TGI in test [10], in test [8] and in test [9] were 3.13 µM, 15.3 µM and 1.71 µM, respectively.
On to `CCCC(=O)c1c(NOC2OC(COC(C)=O)C(OC(C)=O)C(OC(C)=O)C2OC(C)=O)nc(OC)n(C)c1=O` (stereo not drawn), for which the TGI in test [1] is 89 µM; in [2], more than 100 µM; in test [3], more than 100 µM; in [4], more than 100 µM; in [5], more than 100 µM; in [6] it was more than 100 µM. In addition, the TGI in test [10], in test [8] and in test [9] was more than 100 µM in each case.
Consider `CC[N+](CCCCCCCCCC[N+](CC)(c1ccccn1)c1ccccn1)(c1ccccn1)c1ccccn1`, for which the GI50 in [1] is 2.09 µM; in test [3] it was 1.78 µM; in [4], 2.11 µM; in test [5], 0.696 µM; in [6], 2.14 µM; in test [7] it was 0.745 µM. Also, the GI50 in test [8] is 1.5 µM; in test [9], 0.668 µM. Besides, the TGI came to 12.6 µM in test [1]; 11.6 µM in [3]; 57.5 µM in [4]; 17.9 µM in test [5]; 15.6 µM in test [6]; 12.9 µM in test [7]. The figures for the TGI in test [8] and in test [9] were 4.29 µM and 2.29 µM, respectively.
With `Cc1cc2nc3c(C(OC4OC(CO)C(O)C(O)C4O)C(O)CO)nn(-c4ccccc4)c3nc2cc1C` (stereo not drawn), the TGI in test [1], in test [2], in [4], in test [5], in [7] and in test [8] was more than 100 µM in each case. This compound gave a TGI in [9] of more than 100 µM.
Regarding `O=c1cc(-c2ccccc2)[nH]c2cccc(S)c12`, the TGI in test [3] is 19.2 µM; in [4], 2.37 µM; in [5], more than 100 µM; in [6], more than 100 µM; in test [7] it was more than 100 µM; in [10], more than 100 µM. This compound displayed a TGI in test [9] of 0.389 µM.
Regarding `CCOc1ccccc1NC(=O)/C=C1\NC(=O)CS1`, the TGI in test [1], in test [2], in [3], in test [4], in test [5] and in test [6] was more than 100 µM each time. In addition, the TGI in test [10], in [8] and in test [9] was more than 100 µM each time.
Turning to `COP1(=O)CC2C(Cl)(Cl)C2(C)C1` (stereo not drawn), the TGI in test [2], in [3], in [4], in test [5], in [6] and in test [10] was more than 100 µM in each case. In addition, the TGI in test [8] and in test [9] was more than 100 µM throughout.
Regarding `Cc1c(CCCl)c(=O)n2c([nH]c3ccccc32)c1C#N`, the TGI amounted to 3.51 µM in test [1]; 0.28 µM in test [3]; 3.15 µM in test [4]; 3.49 µM in [5]; 2.27 µM in test [6]; 8.04 µM in test [7]. For the same compound, the TGI in [10] turned out to be 2.8 µM; in test [8], 2.02 µM; in test [9] it was 3.48 µM.
In the case of `CC1(C)C=CC[C@]2(C)[C@H]3CC[C@@H]4[C@H]5[C@H](C(=O)/C=C/c6cccnc6)CC[C@]5(CO)CC[C@@]4(C)[C@]3(C)CC[C@@H]12`, the GI50 in test [1] is 1.21 µM; in test [2] it was 1.19 µM; in test [3], 1.69 µM; in test [4], 0.666 µM; in test [6], 1 µM; in test [7], 1.39 µM. Also, the values for the GI50 in [10] and in test [9] were 1.46 µM and 1.15 µM, respectively. Moreover, the TGI in test [1] worked out at 2.45 µM; in [2] it was 2.74 µM; in test [3], 3.69 µM; in test [4] it was 3.22 µM; in test [6], 2.31 µM; in test [7], 2.91 µM. The TGI was found to be 2.79 µM in test [10] and 2.42 µM in [9].
As for `CC(=O)N/C(=C\c1ccc(/C=C(\NC(C)=O)c2nc3ccc(Cl)cc3[nH]2)cc1)c1nc2ccccc2[nH]1`, the TGI in test [2], in test [3], in test [4], in [5], in [6] and in test [10] was more than 100 µM throughout.
With `O=C1C(Br)=C[C@H]2C3C=CC(Br)(C3=O)[C@@H]12` (stereo partly drawn), the TGI is 31.1 µM in [1]; 18.2 µM in [2]; 21.4 µM in test [3]; 26 µM in test [4]; 25 µM in test [5]; 21.1 µM in [6]. Besides, the TGI in [7] turned out to be 24.8 µM; in test [10], 27.2 µM; in [9] it was 51 µM.
Regarding `Cc1cc2nc3c(=O)n(C)c(=O)nc-3n(-c3ccc(Cl)cc3)c2cc1C`, the TGI in [1] came out at 52.6 µM; in test [3], 9.76 µM; in [4], 43.7 µM; in test [5], 26.2 µM; in test [6], 20.5 µM; in test [7], 20 µM. Moreover, the TGI turned out to be 4.14 µM in test [10] and 26.1 µM in test [9].
For `CC(=O)NC1=N/C(=C/c2cc([N+](=O)[O-])ccc2O)CN1C`, the TGI in [1], in [3], in test [4], in test [5], in test [6] and in test [7] was more than 100 µM throughout. For the same compound, the TGI in test [10], in [8] and in test [9] was more than 100 µM throughout.
`Nc1ccc(C(=O)N/C(=C\C=C\c2ccco2)c2nc3[nH]c(=S)[nH]c(=O)c3[nH]2)cc1`: the TGI in test [1], in test [2], in [3], in test [4], in [5] and in [6] was more than 100 µM throughout. Moreover, the TGI in test [10] and in test [9] was more than 100 µM each time.
Regarding `COc1cc(-c2nc3ccc(C)cc3[nH]2)ccc1OCC(=O)N=Nc1c(O)[nH]c2ccccc12`, the GI50 was 12.5 µM in test [1]; 1.81 µM in test [5]; 0.769 µM in [6]; 1.82 µM in test [10]; 0.339 µM in test [8]; 1.94 µM in [9]. The TGI in test [1] amounted to 96.4 µM; in test [5], 3.48 µM; in test [6], 2.37 µM; in [10] it was 3.52 µM; in [8] it was 1.29 µM; in test [9] it was 3.82 µM.
In the case of `CCOC(=O)C(C)(C)Oc1ccc2c(=O)cc(-c3ccc(Cl)cc3)oc2c1`, the TGI in test [1], in [3], in test [4], in test [5], in test [6] and in test [7] was more than 100 µM in each case. Further, the TGI in test [10], in test [8] and in test [9] was more than 100 µM throughout.
As to `COc1cc(C2c3cc4c(cc3[C@@H](Nc3ccc(C(=O)O)cc3)C3COC(=O)[C@H]23)OCO4)cc(OC)c1O` (stereo partly drawn), the TGI in test [1] is more than 100 µM; in test [3], more than 100 µM; in [4] it was 54 µM and > 17.5 µM; in test [5], 31.1 µM and > 17.5 µM; in test [6], 62.4 µM and > 17.5 µM; in test [7], more than 100 µM. The TGI in test [10] was 38.3 µM and > 17.5 µM; in test [8], 18.7 µM and 5.1 µM; in test [9], more than 100 µM. Besides, the GI50 in [3] was 26.8 µM and 12.9 µM; in [6], 11.9 µM and 3.89 µM.
